Among the data in paper PMC4685510, “A Cell Biologist’s Field Guide to Aurora Kinase Inhibitors” (Frontiers in Oncology, 2015) are remaining activity values, retold here.

What all share (test): biochemical
What all share (format): biochemical

Experiment [1] addresses 363 human kinases (including Aurora A/B/C) (Homo sapiens, UniProt Q9HAZ1). The conditions noted are these: CLK4, [ATP] 100 µM, read-out: % Enzyme Activity (relative to DMSO controls); for remaining activity at 0.1 µM: 100 nM.
Text: (§1) However, the Aurora A/B selectivity ratios derived from our in vitro and in vivo data can be compared to prioritize inhibitors.
Experiment [2] has as its target 363 human kinases (including Aurora A/B/C) (Homo sapiens, UniProt Q13464). Conditions: ROCK1, read-out: % Enzyme Activity (relative to DMSO controls); for remaining activity at 0.1 µM: 100 nM.
Text: as §1
Experiment [3] has as its target 363 human kinases (including Aurora A/B/C) (Homo sapiens, UniProt Q9UIK4). Conditions: DAPK2, [ATP] 5 µM, read-out: % Enzyme Activity (relative to DMSO controls); for remaining activity at 0.1 µM: 100 nM.
Text: as §1
Experiment [4] addresses 363 human kinases (including Aurora A/B/C) (Homo sapiens, UniProt Q9HC98). The conditions noted are these: NEK6, read-out: % Enzyme Activity (relative to DMSO controls); for remaining activity at 0.1 µM: 100 nM.
Text: as §1
In experiment [5] the target is 363 human kinases (including Aurora A/B/C) (Homo sapiens, UniProt P42685). Conditions: FRK/PTK5, read-out: % Enzyme Activity (relative to DMSO controls); for remaining activity at 0.1 µM: 100 nM.
Text: as §1
The target in experiment [6] is 363 human kinases (including Aurora A/B/C) (Homo sapiens, UniProt P49674). Conditions: CK1epsilon, [ATP] 50 µM, read-out: % Enzyme Activity (relative to DMSO controls); for remaining activity at 0.1 µM: 100 nM.
Text: as §1
Experiment [7] has as its target 363 human kinases (including Aurora A/B/C) (Homo sapiens, UniProt Q13177). The conditions noted are these: PAK2, read-out: % Enzyme Activity (relative to DMSO controls); for remaining activity at 0.1 µM: 100 nM.
Text: as §1
Experiment [8] concerns the target 363 human kinases (including Aurora A/B/C) (Homo sapiens, UniProt P68400). Conditions: CK2a, [ATP] 20 µM, read-out: % Enzyme Activity (relative to DMSO controls); for remaining activity at 0.1 µM: 100 nM.
Text: as §1
Experiment [9] has as its target T1, 363 human kinases (including Aurora A/B/C) (Homo sapiens, UniProt Q6XUX3).
T1 sequence (Q6XUX3 1-929): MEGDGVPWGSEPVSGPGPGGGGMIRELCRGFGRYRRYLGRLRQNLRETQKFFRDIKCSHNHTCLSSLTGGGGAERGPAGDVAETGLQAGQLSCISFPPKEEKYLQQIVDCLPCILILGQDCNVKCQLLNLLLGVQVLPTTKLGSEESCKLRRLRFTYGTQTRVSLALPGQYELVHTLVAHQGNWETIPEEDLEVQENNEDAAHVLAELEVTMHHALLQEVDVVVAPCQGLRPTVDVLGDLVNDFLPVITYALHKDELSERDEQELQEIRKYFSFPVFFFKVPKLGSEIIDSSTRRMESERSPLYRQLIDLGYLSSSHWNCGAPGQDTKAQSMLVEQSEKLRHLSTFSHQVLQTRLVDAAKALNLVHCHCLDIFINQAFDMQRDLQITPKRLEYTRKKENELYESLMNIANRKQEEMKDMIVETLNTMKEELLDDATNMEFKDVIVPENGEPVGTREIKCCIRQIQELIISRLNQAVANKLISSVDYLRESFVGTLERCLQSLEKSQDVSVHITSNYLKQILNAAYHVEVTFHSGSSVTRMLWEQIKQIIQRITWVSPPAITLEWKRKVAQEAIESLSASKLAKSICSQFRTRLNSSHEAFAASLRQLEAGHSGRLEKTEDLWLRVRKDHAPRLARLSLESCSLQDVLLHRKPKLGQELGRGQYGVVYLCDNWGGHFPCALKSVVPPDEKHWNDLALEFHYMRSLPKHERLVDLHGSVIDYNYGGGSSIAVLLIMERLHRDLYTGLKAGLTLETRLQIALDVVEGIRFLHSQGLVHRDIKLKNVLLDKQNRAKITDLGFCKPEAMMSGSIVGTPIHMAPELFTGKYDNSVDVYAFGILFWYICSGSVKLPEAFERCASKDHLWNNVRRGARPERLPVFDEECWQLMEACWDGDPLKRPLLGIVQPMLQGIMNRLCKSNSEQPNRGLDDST
The conditions noted are these: RIPK5, read-out: % Enzyme Activity (relative to DMSO controls); for remaining activity at 0.1 µM: 100 nM.
Text: as §1

The target of experiment [10] is 363 human kinases (including Aurora A/B/C) (Homo sapiens, UniProt P31749). Conditions: AKT1, [ATP] 100 µM, read-out: % Enzyme Activity (relative to DMSO controls); for remaining activity at 0.1 µM: 100 nM.
Text: as §1
Experiment [11] has as its target 363 human kinases (including Aurora A/B/C) (Homo sapiens, UniProt Q9Y6M4). The conditions noted are these: CK1g3, [ATP] 10 µM, read-out: % Enzyme Activity (relative to DMSO controls); for remaining activity at 0.1 µM: 100 nM.
Text: as §1
Experiment [12] concerns the target T2, 363 human kinases (including Aurora A/B/C) (Homo sapiens, UniProt Q9UEE5).
T2 sequence (Q9UEE5 1-414): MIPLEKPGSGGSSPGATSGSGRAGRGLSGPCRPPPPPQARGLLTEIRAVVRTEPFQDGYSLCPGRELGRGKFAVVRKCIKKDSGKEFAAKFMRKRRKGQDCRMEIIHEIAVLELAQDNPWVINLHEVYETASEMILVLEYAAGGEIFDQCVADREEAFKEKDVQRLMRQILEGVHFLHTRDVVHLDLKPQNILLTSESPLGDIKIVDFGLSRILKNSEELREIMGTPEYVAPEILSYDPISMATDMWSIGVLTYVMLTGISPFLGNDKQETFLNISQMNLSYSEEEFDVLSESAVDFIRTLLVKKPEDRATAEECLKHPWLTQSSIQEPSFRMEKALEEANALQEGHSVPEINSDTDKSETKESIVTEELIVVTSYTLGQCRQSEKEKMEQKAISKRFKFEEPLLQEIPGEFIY
Conditions: DRAK1/STK17A, [ATP] 30 µM, read-out: % Enzyme Activity (relative to DMSO controls); for remaining activity at 0.1 µM: 100 nM.
Text: as §1

Experiment [13] deals with 363 human kinases (including Aurora A/B/C) (Homo sapiens, UniProt P53350). The conditions noted are these: PLK1, read-out: % Enzyme Activity (relative to DMSO controls); for remaining activity at 0.1 µM: 100 nM.
Text: as §1
The target of experiment [14] is 363 human kinases (including Aurora A/B/C) (Homo sapiens, UniProt Q02750). The conditions noted are these: MEK1, read-out: % Enzyme Activity (relative to DMSO controls); for remaining activity at 0.1 µM: 100 nM.
Text: as §1
Experiment [15] deals with 363 human kinases (including Aurora A/B/C) (Homo sapiens, UniProt P50613). Conditions: CDK7/cyclin H, [ATP] 50 µM, read-out: % Enzyme Activity (relative to DMSO controls); for remaining activity at 0.1 µM: 100 nM.
Text: as §1
The target in experiment [16] is 363 human kinases (including Aurora A/B/C) (Homo sapiens, UniProt P21802). Conditions: FGFR2, [ATP] 5 µM, read-out: % Enzyme Activity (relative to DMSO controls); for remaining activity at 0.1 µM: 100 nM.
Sequence of 363 human kinases (including Aurora A/B/C) (Homo sapiens, UniProt P21802) (P21802 22-821): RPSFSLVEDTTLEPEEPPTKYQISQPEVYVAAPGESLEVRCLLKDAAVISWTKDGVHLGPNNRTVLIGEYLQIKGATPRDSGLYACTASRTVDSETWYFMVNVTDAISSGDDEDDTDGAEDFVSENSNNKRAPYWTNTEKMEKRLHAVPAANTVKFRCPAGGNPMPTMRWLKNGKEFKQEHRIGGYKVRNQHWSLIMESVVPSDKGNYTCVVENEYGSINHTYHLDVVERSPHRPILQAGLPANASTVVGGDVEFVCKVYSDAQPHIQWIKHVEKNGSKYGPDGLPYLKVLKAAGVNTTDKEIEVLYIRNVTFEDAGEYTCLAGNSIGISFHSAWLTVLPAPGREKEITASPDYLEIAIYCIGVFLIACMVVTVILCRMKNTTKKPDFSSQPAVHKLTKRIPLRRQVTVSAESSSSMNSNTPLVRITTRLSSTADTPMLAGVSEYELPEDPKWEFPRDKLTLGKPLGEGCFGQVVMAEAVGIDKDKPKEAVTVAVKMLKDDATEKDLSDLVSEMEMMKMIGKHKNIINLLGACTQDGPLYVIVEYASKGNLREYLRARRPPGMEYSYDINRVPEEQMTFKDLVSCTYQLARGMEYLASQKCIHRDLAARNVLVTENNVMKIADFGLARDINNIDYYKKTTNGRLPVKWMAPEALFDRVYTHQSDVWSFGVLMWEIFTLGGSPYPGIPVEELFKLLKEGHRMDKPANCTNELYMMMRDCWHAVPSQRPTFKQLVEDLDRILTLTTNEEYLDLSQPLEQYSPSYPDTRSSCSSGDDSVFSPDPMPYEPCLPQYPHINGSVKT
Text: as §1

Sequence of 363 human kinases (including Aurora A/B/C) (Homo sapiens, UniProt Q9HAZ1) (Q9HAZ1 whole entry): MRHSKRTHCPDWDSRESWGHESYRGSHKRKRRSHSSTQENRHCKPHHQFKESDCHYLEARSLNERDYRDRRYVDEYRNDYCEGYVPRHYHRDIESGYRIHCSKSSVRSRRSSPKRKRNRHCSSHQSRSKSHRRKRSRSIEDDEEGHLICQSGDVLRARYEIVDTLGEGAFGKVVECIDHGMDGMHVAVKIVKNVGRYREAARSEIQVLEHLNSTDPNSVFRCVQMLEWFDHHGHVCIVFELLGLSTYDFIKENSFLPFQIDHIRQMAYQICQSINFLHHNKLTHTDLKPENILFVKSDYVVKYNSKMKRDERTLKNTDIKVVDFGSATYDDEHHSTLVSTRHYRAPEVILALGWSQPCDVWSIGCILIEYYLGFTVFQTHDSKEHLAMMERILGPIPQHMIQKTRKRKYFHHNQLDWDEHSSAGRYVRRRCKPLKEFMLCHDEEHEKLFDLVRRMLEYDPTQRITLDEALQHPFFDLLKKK
Sequence of 363 human kinases (including Aurora A/B/C) (Homo sapiens, UniProt Q9Y6M4) (Q9Y6M4 whole entry): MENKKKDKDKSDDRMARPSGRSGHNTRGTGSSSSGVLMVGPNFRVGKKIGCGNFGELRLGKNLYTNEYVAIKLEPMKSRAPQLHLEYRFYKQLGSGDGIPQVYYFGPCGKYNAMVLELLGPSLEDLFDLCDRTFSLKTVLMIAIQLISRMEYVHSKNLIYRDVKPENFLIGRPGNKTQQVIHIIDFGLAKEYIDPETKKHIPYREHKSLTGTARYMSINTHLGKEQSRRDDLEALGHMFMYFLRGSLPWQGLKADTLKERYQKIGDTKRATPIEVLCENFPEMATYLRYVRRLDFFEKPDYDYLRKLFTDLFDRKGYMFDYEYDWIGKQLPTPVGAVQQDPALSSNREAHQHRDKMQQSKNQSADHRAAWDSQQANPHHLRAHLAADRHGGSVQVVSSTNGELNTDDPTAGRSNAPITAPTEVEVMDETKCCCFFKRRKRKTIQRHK
Sequence of 363 human kinases (including Aurora A/B/C) (Homo sapiens, UniProt P49674) (P49674 whole entry): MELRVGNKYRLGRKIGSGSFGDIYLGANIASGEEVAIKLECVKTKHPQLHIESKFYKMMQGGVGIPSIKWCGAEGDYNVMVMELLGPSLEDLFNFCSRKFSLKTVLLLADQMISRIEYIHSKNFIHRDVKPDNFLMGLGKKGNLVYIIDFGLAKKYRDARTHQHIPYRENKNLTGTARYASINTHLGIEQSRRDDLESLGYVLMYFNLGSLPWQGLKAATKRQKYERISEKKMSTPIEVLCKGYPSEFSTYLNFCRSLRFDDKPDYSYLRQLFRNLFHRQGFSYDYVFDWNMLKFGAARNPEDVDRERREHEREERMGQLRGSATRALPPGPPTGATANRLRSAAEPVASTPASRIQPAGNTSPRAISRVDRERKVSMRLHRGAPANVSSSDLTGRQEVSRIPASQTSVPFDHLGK
Sequence of 363 human kinases (including Aurora A/B/C) (Homo sapiens, UniProt P50613) (P50613 whole entry): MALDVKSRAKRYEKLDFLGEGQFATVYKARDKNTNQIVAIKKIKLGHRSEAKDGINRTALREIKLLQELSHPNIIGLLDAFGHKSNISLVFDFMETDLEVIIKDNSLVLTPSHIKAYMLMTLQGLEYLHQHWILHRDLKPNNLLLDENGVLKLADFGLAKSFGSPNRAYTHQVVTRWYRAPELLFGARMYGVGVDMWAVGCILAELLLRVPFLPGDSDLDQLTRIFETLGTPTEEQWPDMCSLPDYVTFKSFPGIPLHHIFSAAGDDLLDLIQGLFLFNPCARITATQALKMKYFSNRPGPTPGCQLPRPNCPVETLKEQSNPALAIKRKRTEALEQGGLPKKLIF
Sequence of 363 human kinases (including Aurora A/B/C) (Homo sapiens, UniProt P42685) (P42685 whole entry): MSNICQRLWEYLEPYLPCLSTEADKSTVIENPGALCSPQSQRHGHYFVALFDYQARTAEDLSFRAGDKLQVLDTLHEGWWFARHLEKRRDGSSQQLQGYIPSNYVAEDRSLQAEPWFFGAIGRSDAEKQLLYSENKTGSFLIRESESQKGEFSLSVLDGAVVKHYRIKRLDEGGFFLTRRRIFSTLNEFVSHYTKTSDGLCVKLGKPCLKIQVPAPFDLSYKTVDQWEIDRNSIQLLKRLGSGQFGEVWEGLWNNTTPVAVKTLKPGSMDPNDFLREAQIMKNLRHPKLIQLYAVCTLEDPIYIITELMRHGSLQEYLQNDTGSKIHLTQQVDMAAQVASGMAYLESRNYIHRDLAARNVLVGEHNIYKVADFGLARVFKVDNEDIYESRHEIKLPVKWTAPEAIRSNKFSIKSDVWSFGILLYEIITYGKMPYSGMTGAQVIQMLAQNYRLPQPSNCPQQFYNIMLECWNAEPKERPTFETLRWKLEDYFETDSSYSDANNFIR
Sequence of 363 human kinases (including Aurora A/B/C) (Homo sapiens, UniProt Q9HC98) (Q9HC98 whole entry): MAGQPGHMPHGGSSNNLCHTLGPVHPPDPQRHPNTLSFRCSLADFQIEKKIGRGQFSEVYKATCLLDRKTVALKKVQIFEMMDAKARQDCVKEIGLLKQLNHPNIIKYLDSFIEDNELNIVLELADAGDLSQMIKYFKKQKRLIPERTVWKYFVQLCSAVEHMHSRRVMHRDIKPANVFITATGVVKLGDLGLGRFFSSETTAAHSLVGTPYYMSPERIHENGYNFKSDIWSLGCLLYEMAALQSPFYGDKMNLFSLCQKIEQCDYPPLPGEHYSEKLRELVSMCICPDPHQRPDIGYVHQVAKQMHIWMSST
Sequence of 363 human kinases (including Aurora A/B/C) (Homo sapiens, UniProt Q13464) (Q13464 whole entry): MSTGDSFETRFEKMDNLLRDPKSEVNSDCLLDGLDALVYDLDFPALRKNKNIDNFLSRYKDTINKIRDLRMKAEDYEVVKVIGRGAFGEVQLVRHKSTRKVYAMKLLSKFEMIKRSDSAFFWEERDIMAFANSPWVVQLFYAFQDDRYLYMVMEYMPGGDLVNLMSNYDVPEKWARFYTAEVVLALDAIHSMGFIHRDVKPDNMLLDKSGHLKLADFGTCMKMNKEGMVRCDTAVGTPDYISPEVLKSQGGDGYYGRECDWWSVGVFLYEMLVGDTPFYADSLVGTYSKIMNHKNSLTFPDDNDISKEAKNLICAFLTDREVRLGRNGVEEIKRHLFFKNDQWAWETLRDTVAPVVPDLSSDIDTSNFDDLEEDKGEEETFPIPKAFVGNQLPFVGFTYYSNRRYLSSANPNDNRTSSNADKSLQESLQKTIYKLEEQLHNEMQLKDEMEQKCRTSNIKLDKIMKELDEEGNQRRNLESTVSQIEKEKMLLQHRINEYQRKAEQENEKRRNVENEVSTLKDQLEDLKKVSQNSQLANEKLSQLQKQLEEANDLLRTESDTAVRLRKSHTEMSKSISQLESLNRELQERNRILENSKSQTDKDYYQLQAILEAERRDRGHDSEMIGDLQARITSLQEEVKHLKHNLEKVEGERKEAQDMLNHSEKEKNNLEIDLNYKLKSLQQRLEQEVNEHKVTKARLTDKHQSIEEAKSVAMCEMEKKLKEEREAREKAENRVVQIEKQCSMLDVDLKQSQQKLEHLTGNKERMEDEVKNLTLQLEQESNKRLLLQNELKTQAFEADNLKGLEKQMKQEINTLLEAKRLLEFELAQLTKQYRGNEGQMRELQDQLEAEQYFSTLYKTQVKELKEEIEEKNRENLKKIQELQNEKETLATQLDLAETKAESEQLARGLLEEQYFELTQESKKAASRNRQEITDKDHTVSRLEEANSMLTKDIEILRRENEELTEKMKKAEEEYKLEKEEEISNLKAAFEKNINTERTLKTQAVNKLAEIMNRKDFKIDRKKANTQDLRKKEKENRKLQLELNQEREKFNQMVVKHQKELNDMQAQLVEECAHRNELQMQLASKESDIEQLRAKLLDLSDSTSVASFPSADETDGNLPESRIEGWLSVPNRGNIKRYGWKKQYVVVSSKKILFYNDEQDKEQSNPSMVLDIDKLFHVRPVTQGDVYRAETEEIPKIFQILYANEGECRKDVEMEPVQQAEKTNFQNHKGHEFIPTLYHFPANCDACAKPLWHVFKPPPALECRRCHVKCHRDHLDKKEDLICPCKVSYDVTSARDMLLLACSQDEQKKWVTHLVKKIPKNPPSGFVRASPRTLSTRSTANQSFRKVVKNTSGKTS

Take `CCn1cc(-c2ccnc3[nH]c(-c4cccc(CN(C)C)c4)cc23)c(-c2ccc(NC(=O)N(C)C)cc2)n1` [GSK1070916]: the remaining activity at 0.1 µM came out at 70.3% in [1]; 101% in experiment [2]; 111% in [3]; 109% in [4]; 99.9% in [5]; 95.8% in [6]. Besides, the remaining activity at 0.1 µM in experiment [7] was found to be 106%; in experiment [8], 99.6%; in experiment [9] it was 114%; in [10] it was 105%; in experiment [11], 95%; in experiment [12], 109%. For the same compound, the remaining activity at 0.1 µM was 96.5% in [13], 102% in experiment [14], 109% in experiment [15] and 43.3% in experiment [16].

As for `O=C(O)[C@]1(Cc2cccc(Nc3nccs3)n2)CC[C@@H](Oc2cccc(Cl)c2F)CC1` [MK-5108], the remaining activity at 0.1 µM in experiment [1] was 34.9%; in experiment [2], 99.8%; in [3], 103%; in [4], 87%; in [5], 41%; in [6] it was 98.1%. Besides, the remaining activity at 0.1 µM in experiment [7] was found to be 97.1%; in [8] it was 104%; in experiment [9], 96.6%; in experiment [10], 116%; in experiment [11] it was 100%; in experiment [12] it was 105%. Further, the remaining activity at 0.1 µM came out at 101% in experiment [13], 93.4% in experiment [14], 95.9% in experiment [15] and 39.7% in experiment [16]. For the same compound, the remaining activity at 0.5 µM in [1] (500 nM) stood at 6.67%; in experiment [2] (500 nM), 102%; in experiment [3] (500 nM) it was 111%; in experiment [4] (500 nM), 115%; in experiment [5] (500 nM), 19.8%; in experiment [6] (500 nM), 91.5%. The remaining activity at 0.5 µM was 98.2% in experiment [7] (500 nM); 105% in experiment [8] (500 nM); 123% in [9] (500 nM); 102% in experiment [10] (500 nM); 94.6% in [11] (500 nM); 102% in [12] (500 nM). Besides, the remaining activity at 0.5 µM in experiment [13] (500 nM) came to 100%; in experiment [14] (500 nM), 96.2%; in [15] (500 nM), 112%; in experiment [16] (500 nM) it was 11.2%.
